The source of these data is patent US20250019386A1, “PYRROLO[1,2-b]-2-PYRIDAZINONE COMPOUNDS AS 5-HT4 RECEPTOR AGONISTS” (SUVEN LIFE SCIENCES LIMITED, priority 2022, published 2025).

Data set [1] can be described thus: Rat pharmacokinetic study. It is filed as in vivo. The conditions noted are these: male Wistar rats, plasma; for bioavailability: oral 3 mg/kg vs intravenous 1 mg/kg. On the procedure: Male Wistar rats (250±50 g) were used as experimental animals. Animals were housed individually in polypropylene cages. Two days prior to study, rats were anesthetized with isoflurane for surgical placement of jugular vein catheter. Rats were randomly divided for oral (3 mg/kg and 10 mL/kg as dose volume) and intravenous (1 mg/kg and 2 mL/kg as dose volume) dosing (n=3/group) and fasted overnight before oral dosing (p.o.). However, rats allocated to intravenous dosing food and water was provided ad libitum.
Intravenous formulation was prepared by using water for injection as vehicle. For Oral, formulation was prepared by using reagent grade water as vehicle. The dose formulations were prepared freshly on the day of dosing.
After dosing of animal, each time point a 200 μL of blood sample was collected through jugular vein and replenished with an equivalent volume of normal saline. The collected blood sample was transferred into a labeled eppendorf tube containing 10 μL of sodium heparin (1000 IU/mL) as an anticoagulant. Typically blood samples were collected at following time points: 0.08, 0.25, 0.5, 1, 2, 4, 6, 8, and 24 h post dose. Blood was centrifuged at 4000 rpm for 10 min. Plasma was separated and stored frozen at −80° C. until analysis. The concentrations of the test compounds were quantified in plasma by qualified LC-MS/MS method using a suitable extraction technique. The test compounds were quantified in the calibration range around 1-2000 ng/mL in plasma. Study samples were analyzed using calibration samples in the batch and quality control samples spread across the batch.
Pharmacokinetic parameters Cmax, AUCt, t1/2 and bioavailability were calculated by non-compartmental model using standard non-compartmental model by using Phoenix WinNonlin 6.4 version Software.

The nature of data set [2]: Rat brain penetration study. It is filed as in vivo. Conditions: brain/plasma, oral (gavage) 3 mg/kg, male Wistar rats, brain concentrations below LLOQ taken as zero, read-out: Single dose Brain Penetration (Cb/Cp). The procedure:
Male Wistar rats (225±25 g) were used as experimental animals. Three animals were housed in each cage. Animals were given water and food ad libitum throughout the experiment and maintained on a 12 h light/dark cycle.
Brain penetration was determined in discrete manner in rats. One day prior to dosing day, male Wistar rats were acclimatized. After acclimatization, the rats were grouped according to their weight. In each group, 3 animals were kept in individual cages and allowed free access to food and water. At each time point (0.5, 1, and 2 h) n=3 animals were used.
The compounds of formula (I) were suitably preformulated and administered orally at (free base equivalent) 3 mg/kg. Blood samples were collected via, cardiac puncture by using isoflurane anesthesia. The animals were sacrificed to collect brain tissue. Plasma was separated and brain samples were homogenized and stored frozen at −20° C. until analysis.
The concentrations of the compounds of formula (I) were quantified in plasma and brain homogenate by qualified LC-MS/MS method using a suitable extraction technique. The compounds of formula (I) were quantified in the calibration range of 1-2000 ng/mL in plasma and brain homogenate. Study samples were analyzed using calibration samples in the batch and quality control samples spread across the batch. Extent of brain-plasma ratio was calculated (Cb/Cp). Brain concentrations were found below LLOQ and a value of zero was considered for calculation purposes.

The target in data set [3] is T1, 5-HT4 receptors (Homo sapiens (Human), UniProt Q13639). Put plainly: Determination of EC50 values for 5-HT4 receptor (pCRE-Luc reporter assay). It is filed as cell-based. Conditions: CHO cells expressing recombinant human 5-HT4 receptor and pCRE-Luc reporter; 4 h incubation; luciferase activity. On the procedure: A stable CHO cell line expressing recombinant human 5-HT4 receptor and pCRE-Luc reporter system was used for cell-based assay. The assay offers a non-radioactive based approach to determine binding of a compound to GPCRs. In this specific assay, the level of intracellular cyclic AMP, which is modulated by activation, or inhibition of the receptor is measured. The recombinant cells harbor luciferase reporter gene under the control of cAMP response element.
T1 sequence (Q13639 whole entry): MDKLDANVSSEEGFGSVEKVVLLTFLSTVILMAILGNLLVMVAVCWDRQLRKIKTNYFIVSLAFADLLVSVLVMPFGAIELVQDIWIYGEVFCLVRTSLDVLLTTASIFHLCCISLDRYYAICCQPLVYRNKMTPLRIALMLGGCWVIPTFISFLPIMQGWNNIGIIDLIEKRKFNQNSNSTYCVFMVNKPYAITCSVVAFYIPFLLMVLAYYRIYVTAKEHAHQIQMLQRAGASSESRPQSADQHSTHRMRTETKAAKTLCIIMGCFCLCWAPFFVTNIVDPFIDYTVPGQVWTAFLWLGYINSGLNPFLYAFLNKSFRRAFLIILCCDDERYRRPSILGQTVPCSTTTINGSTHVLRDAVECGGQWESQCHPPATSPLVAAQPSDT
The above cells were grown in 96 well clear bottom white plates in Ham's F12 medium containing 10% fetal bovine serum. Prior to the addition of compounds or standard agonist, cells were serum starved overnight. Increasing concentrations of test compounds were added to the cells in OptiMEM medium. The incubation was continued in CO2 incubator at 37° C. with 5% CO2 conditions for 4 h. Medium was removed and cells were washed with phosphate buffered saline. The cells were lysed and luciferase activity was measured in a Luminometer. Concentration-response data was generated using the luciferase assay, following incubation of cells with receptor ligands, were analyzed by subtracting basal levels (i.e. with medium alone), then normalizing values as a percentage of controls (endogenous agonist serotonin (10 μM)). […] EC50 values of the compounds were defined as the concentration required in stimulating the luciferase activity by 50%.

For data set [4], the target named is T1, 5-HT4 receptors. The conditions noted are these: background statement; cited from earlier work.
The next data set has as its target hERG potassium channels (Homo sapiens (Human), UniProt Q12809). The conditions noted are these: background statement; cited from earlier work.
A further data set concerns gastric emptying. Briefly: Effect on gastric emptying in Beagle dogs (clonidine model of gastroparesis). It is filed as in vivo. The conditions noted are these: 10 mg/kg oral, clonidine-treated beagle dogs. The procedure: Six beagle dogs were used for the study in a crossover manner such that all 6 dogs received all the treatments. Each dog was placed in an individual cage after overnight fasting and water removed. To provide a model of gastroparesis, clonidine (α2 adrenergic agonist) at a dose of 10 μg/kg was injected subcutaneously 30 min before test meal administration.
Dogs were orally administered test compound of example 2 at 1, 3 and 10 mg/kg or vehicle or cisapride at 10 mg/kg immediately before the administration of clonidine. The test meal (10 mL/kg), made up of commercially available semi-solid food with 10 mg/kg of acetaminophen (APAP), was provided 30 min after clonidine injection. Blood samples were collected from cephalic vein at 0, 0.25, 0.5, 0.75, 1.0, 1.25, 1.5 & 2.0 h after test meal administration and then plasma was separated by centrifugation. Plasma concentrations of APAP were determined by in-house methods using LC-MS/MS.

Sequence of hERG potassium channels (Q12809 whole entry): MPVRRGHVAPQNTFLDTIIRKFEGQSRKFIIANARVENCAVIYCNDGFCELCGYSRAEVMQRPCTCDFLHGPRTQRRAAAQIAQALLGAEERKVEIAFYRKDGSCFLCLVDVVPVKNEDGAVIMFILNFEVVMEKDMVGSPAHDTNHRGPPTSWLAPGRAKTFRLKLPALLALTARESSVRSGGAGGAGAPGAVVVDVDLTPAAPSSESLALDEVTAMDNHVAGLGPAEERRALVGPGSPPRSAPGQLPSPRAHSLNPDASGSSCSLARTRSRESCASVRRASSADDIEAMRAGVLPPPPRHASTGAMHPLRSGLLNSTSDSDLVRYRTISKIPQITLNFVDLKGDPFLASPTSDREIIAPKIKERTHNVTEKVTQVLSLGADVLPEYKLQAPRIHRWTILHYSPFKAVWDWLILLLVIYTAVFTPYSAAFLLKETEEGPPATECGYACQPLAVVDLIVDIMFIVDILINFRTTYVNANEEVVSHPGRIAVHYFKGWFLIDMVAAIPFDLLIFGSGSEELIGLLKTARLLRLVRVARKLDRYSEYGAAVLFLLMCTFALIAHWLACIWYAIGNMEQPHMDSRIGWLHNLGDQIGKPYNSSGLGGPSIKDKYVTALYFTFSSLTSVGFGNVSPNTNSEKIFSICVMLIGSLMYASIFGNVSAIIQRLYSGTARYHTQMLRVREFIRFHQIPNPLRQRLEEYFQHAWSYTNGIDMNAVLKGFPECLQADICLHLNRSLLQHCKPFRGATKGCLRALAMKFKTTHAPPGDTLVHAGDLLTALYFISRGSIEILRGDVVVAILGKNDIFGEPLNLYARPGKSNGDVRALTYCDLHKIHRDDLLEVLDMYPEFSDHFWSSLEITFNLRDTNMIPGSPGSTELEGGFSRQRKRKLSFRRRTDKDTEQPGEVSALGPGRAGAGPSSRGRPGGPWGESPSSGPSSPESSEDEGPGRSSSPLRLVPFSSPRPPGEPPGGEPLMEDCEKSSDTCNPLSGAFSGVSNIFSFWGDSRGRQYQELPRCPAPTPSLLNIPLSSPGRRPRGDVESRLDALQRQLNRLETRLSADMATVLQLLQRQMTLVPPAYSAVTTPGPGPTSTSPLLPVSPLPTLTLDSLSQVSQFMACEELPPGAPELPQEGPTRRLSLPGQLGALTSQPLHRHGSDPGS

In data set [1] (intravenous (bolus), 1 mg/kg), `CC(C)n1c(=O)c(C(=O)NC2CC3CCC(C2)N3C[C@H](O)CN(C)S(C)(=O)=O)cc2cccn21.O=C(O)C(O)C(O)C(=O)O` (single isomer, unassigned) [Example 4] gave an exposure AUC(0-t) of 124 ± 7.9 ng·h/mL and a half-life of 1.7 ± 0.3 h. In data set [1] (oral (gavage), 3 mg/kg), this compound had an AUC(0-t) of 44 ± 22 ng·h/mL and a maximum concentration (Cmax) of 11 ± 6.6 ng/mL. This compound also registered a bioavailability in data set [1] of 12 ± 5.9%. Moreover, the Kp in data set [2] was found to be 0. Besides, on 5-HT4 receptors [3], the EC50 came to 10 nM.

As for `CC(C)n1c(=O)c(C(=O)NC2CC3CCC(C2)N3CCNS(C)(=O)=O)cc2cccn21.O=C(O)C(O)C(O)C(=O)O` [Example 28, N-{8-[2-Methanesulfonylaminoethyl]-8-azabicyclo[3.2.1]oct-3-yl} [1-isopropyl-2-oxo-1,2-dihydro pyrrolo[1,2-b]pyridazin]-3-carboxamide L-(+)-tartrate], in data set [1] (intravenous (bolus), 1 mg/kg), the area under the curve AUC(0-t) is 146 ± 39 ng·h/mL and the half-life was 1.3 ± 0.2 h. In addition, in data set [1] (oral (gavage), 3 mg/kg), the AUC(0-t) was determined as 189 ± 26 ng·h/mL and the highest level (Cmax) was 83 ± 51 ng/mL. For the same compound, in data set [1], the bioavailability is 43 ± 6%. Besides, in data set [2], the Kp was found to be 0. For the same compound, the half-maximal effective concentration (EC50) at 5-HT4 receptors [3] is 12 nM.

In data set [1] (intravenous (bolus), 1 mg/kg), `COC(=O)NCCCN1C2CCC1CC(NC(=O)c1cc3cccn3n(C(C)C)c1=O)C2.O=C(O)C(O)C(O)C(=O)O` [Example 34, N-{8-[3-Carbomethoxyaminopropyl]-8-azabicyclo[3.2.1]oct-3-yl} [1-isopropyl-2-oxo-1,2-dihydro pyrrolo[1,2-b]pyridazin]-3-carboxamide L-(+)-tartrate] showed an area under the curve AUC(0-t) of 119 ± 16 ng·h/mL and a half-life of 1.3 ± 0.3 h. In data set [1] (oral (gavage), 3 mg/kg), this compound registered an AUC(0-t) of 274 ± 74 ng·h/mL and a Cmax of 174 ± 49 ng/mL. Moreover, in data set [1], the bioavailability was found to be 77 ± 21%. The Kp in data set [2] turned out to be 0. In addition, the 50% effective concentration (EC50) on 5-HT4 receptors [3] was 18 nM.

With `COc1cc(N)c(Cl)cc1C(=O)NC1CCN(CCCOc2ccc(F)cc2)CC1OC` (centres unmarked) [cisapride], the “selectivity for 5-HT4 receptors” value at 5-HT4 receptors [4] was “poor selectivity”. Also, the “interaction with hERG potassium channels” value on hERG potassium channels is “potent interaction”. Besides, the “speed of gastric emptying” value in the data set on gastric emptying is “restored speed of gastric emptying”.

On to `[H]/N=C(/NCCCCC)N/N=C/c1c[nH]c2ccc(OC)cc12` [tegaserod], for which, on 5-HT4 receptors [4], the “selectivity for 5-HT4 receptors” value is on record as “poor selectivity”. The “interaction with hERG potassium channels” value on hERG potassium channels is listed as “potent interaction”.
